# Structures can show the parent of a compound that is named as a salt. Where two headings read alike, the source gives them in different places.
# Key:
# human urokinase = human urokinase (Homo sapiens, UniProt P00749); assay: biochemical; settings: Table 2; substrate S-2444, pH 8.8, 37° C.; read-out: Urokinase S-2444 I50
# Method: Determination of inhibition activity for S-2444 decomposition
# (§1) An inhibitor sample is dissolved in a 0.05 M Tris-hydrochloric acid buffer solution (pH=8.8) to make the total volume to 400 μl. To this solution, 50 μl of a 1 mM S-2444 solution is added and the mixture is incubated at a temperature of 37° C. for 5 minutes in a constant temperature bath. Then, 50 μl of a 500 unit/ml human urokinase is added and the mixture is incubated at a temperature of 37° C. for 5 minutes. Thereafter, 50 μl of 50% acetic acid is added to terminate the reaction. The absorbance of the p-nitroaniline formed in the reaction mixture is measured at 405 nm. Thus, the concentration I50 (μmol) of the inhibitor sample, at which the absorbance is one half (i.e., 1/2) of that obtained in the absence of the inhibitor sample, is determined.
# human plasmin [1] = molecular target: T1, human plasmin (Homo sapiens, UniProt P00747); assay: Antiplasmin activity: inhibition of S-2251 decomposition; type: biochemical; settings: Table 2; substrate S-2251, pH 7.4, 37° C.
# T1 sequence (P00747 581-810 limits assumed): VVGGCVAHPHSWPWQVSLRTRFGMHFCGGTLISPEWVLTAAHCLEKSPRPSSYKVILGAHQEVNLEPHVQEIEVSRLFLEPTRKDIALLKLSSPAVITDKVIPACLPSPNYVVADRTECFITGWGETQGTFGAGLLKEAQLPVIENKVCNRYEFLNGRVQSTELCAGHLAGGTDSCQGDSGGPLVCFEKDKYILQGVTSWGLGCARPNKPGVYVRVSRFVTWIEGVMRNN
# T1 sequence (P00747 97-580 limits assumed): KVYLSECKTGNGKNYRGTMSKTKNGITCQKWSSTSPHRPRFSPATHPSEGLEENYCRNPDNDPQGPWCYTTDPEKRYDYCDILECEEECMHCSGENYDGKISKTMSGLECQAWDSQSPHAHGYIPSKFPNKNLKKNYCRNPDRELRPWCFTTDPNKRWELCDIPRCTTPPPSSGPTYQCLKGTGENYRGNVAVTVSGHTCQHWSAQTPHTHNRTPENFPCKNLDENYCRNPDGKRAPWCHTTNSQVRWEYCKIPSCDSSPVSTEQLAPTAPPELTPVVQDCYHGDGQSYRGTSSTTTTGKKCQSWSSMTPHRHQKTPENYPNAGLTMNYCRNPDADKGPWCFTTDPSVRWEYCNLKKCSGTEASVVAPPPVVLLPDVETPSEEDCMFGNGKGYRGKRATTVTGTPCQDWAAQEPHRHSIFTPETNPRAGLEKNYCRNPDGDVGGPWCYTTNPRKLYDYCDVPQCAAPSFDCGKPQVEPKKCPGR
# Method: An inhibitor sample is dissolved in a 0.05 M Tris-hydrochloric acid buffer solution (pH=7.4) to make the total volume to 400 μl. […] Then, 50 μl of a 0.2 casein unit/ml human plasmin is added and the mixture is incubated at a temperature of 37° C. for 4 minutes. Thereafter, the reaction is stopped by adding 50 μl of 50% acetic acid.
# Thus, the concentration I50 (μmol) of the inhibitor sample, at which the absorbance is one half (i.e., 1/2) of that obtained in the absence of the inhibitor, is determined.
# human plasma kallikrein = human plasma kallikrein (Homo sapiens, UniProt P03952); assay: Anti-plasma kallikrein activity: inhibition of S-2302 decomposition; type: biochemical; settings: Table 2; substrate S-2302, pH 7.8, 37° C.; read-out: Plasma Kallikrein S-2302 I50
# Chain of human plasma kallikrein (P03952 391-638 limits assumed): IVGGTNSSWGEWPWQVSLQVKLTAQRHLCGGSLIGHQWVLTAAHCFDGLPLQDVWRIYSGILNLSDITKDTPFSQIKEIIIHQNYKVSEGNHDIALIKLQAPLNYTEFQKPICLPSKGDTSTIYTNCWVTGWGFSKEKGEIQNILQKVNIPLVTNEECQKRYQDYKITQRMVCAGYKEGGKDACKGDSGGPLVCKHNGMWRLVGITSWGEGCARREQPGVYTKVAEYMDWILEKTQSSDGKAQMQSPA
# Chain of human plasma kallikrein (P03952 20-390 limits assumed): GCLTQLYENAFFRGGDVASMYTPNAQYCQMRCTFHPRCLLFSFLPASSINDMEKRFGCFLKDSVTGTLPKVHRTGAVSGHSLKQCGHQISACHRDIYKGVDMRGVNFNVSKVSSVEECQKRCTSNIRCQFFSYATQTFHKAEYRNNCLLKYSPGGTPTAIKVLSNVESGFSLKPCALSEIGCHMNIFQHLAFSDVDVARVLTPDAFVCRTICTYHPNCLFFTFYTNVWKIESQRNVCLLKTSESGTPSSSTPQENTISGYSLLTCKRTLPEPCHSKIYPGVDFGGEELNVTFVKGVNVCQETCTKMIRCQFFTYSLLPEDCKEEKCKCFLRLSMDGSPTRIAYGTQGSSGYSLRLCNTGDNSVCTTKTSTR
# Method: Determination of inhibition activity for S-2302 decomposition
# as §1, with “solution (pH=7.8)” for “solution (pH=8.8)”, “a 2” for “a 1”, “mM S-2302” for “mM S-2444”, “a 0.12” for “a 500”, “human plasma kallikrein” for “human urokinase”
# bovine trypsin = molecular target: T2, bovine trypsin (Bos taurus, UniProt P00760); assay: Antitrypsin activity: inhibition of S-2238 decomposition; type: biochemical; settings: Table 2; substrate S-2238, pH 8.1, 37° C.; read-out: Trypsin S-2238 I50
# T2 sequence (P00760 24-246): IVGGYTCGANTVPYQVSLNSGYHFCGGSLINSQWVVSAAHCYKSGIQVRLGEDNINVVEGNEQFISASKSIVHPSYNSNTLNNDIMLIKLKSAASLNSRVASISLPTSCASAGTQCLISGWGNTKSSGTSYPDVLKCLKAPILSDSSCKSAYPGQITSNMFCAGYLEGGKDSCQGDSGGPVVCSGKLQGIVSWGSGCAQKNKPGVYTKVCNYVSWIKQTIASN
# Method: Determination of inhibition activity against S-2238 decomposition
# An inhibitor sample is dissolved in a 0.05 M Tris-imidazole buffer solution (pH=8.1) and 125 μl of a 1 mM S-2238 solution is added to make the total volume to 1.20 ml. The mixture is incubated at a temperature of 37° C. for 5 minutes in a constant temperature bath. To this mixture, 0.05 ml of bovine trypsin is added and the absorbance, at 405 nm, of the p-nitroaniline formed per minute is determined at a temperature of 37° C. by using the so-called initial velocity method. Thus, the concentration I50 (μmol) of a inhibitor sample, at which the absorbance is one half (i.e., 1/2) of that obtained in the absence of the inhibitor sample, is determined.
# human plasmin [2] = molecular target: T1, human plasmin; assay: Antiplasmin activity: inhibition of fibrin decomposition; type: biochemical; settings: Table 2, pH 7.4, 37° C., read-out: Plasmin Fibrin I50 (concentration doubling fibrin dissolution time)
# Method: (i) Determination of inhibition activity for fibrin decomposition
# An inhibitor sample is dissolved in a 0.18 M borate-physiological salt buffer solution (pH=7.4) to make the total volume to 600 μl. To this buffer solution, 200 μl of a 0.2% bovine fibrinogen, 100 μl of a 0.3 casein unit/ml human plasmin solution, and 100 μl of a 50 unit/ml bovine thrombin solution, all dissolved in the above-mentioned buffer, are added at a temperature of 37° C. in a constant temperature bath. Then, the dissolution time of the fibrin mass formed above is determined.
# bovine thrombin = molecular target: T3, bovine thrombin (Bos taurus, UniProt P00735); assay: Antithrombin activity: inhibition of fibrin formation (fibrinogen); type: biochemical
# T3 construct: a 0.2 unit/ml bovine thrombin solution
# Method: (i) Determination of inhibition activity against fibrin formation
# An inhibitor sample is dissolved in a 0.18 M borate-physiological salt buffer solution (pH= 7.4) to make the total volume to 500 μl. […] Thus, a coagulation time is determined. The inhibitor concentration I50 (μmol), at which the coagulation time obtained in the absence of the inhibitor is extended twice, is determined.
# [3] = Table 2, bovine fibrinogen, pH 7.4, 37° C., read-out: Thrombin Fibrinogen I50 (concentration doubling coagulation time)
SMILES,IC50 (human urokinase) [µM],IC50 (human plasmin [1]) [µM],IC50 (human plasma kallikrein) [µM],IC50 (bovine trypsin) [µM],IC50 (human plasmin [2]) [µM],IC50 (bovine thrombin; [3]) [µM],IC50 (bovine thrombin) [µM]
"N=C(N)c1ccc(NC(=O)C(Cc2cccc(Oc3ccccc3)c2)NC(=O)[C@H]2CC[C@H](CN)CC2)cc1 (mixture of isomers) [Compound 5, N-(trans-4-aminomethylcyclohexylcarbonyl)-3-phenoxy-DL-phenylalanine-4-amidinoanilide dihydrochloride]",38,22,8.7,2.5,12,> 100,–
"NC[C@H]1CC[C@H](C(=O)NC(Cc2cccc(Oc3ccccc3)c2)C(=O)Nc2ncccc2C(=O)O)CC1 (mixture of isomers) [Compound 10, N-(trans-4-aminomethylcyclohexylcarbonyl)-3-phenoxy-DL-phenylalanine 2-nicotinylamide dihydrobromide]",> 250,–,> 250,> 150,–,> 125,–
"COCCCNC(=O)C(Cc1cccc(Oc2ccccc2)c1)NC(=O)[C@H]1CC[C@H](CN)CC1 (mixture of isomers) [Compound 14, N-(trans-4-amnomethylcyclohexylcarboonyl)-3-phenoxy-DL-phenylalanine 3-methoxypropylamide hydrochloride]",> 500,940,340,100,340,> 500,–
"NC[C@H]1CC[C@H](C(=O)NC(Cc2cccc(Oc3ccccc3)c2)C(N)=O)CC1 (mixture of isomers) [Compound 21, N-(trans-4-aminomethylcyclohexylcarbonyl)-3-phenoxy-DL-phenylalanine amide hydrochloride]",> 1000,320,> 400,> 150,150,–,> 200
"NC[C@H]1CC[C@H](C(=O)NC(Cc2cccc(C(F)(F)F)c2)C(=O)N2CCOCC2)CC1 (mixture of isomers) [Compound 29, N-(trans-4-aminomethylcyclohexylcarbonyl)-3-trifluoromethyl-DL-phenylalanine morpholinoamide hydrochloride]",> 1000,> 1000,> 1000,> 150,> 1000,–,> 1000
"CCOC(=O)c1ccccc1NC(=O)C(Cc1cccc(Oc2ccccc2)c1)NC(=O)[C@H]1CC[C@H](CN)CC1 (mixture of isomers) [Compound 4, N-(trans-4-aminomethylcyclohexylcarbonyl)-3-phenoxy-DL-phenylalanine 2-ethoxycarbonylanilide hydrochloride]",> 200,> 100,> 100,> 150,–,–,> 50
"NC[C@H]1CC[C@H](C(=O)NC(Cc2cccc(Oc3ccccc3)c2)C(=O)Nc2ccncn2)CC1 (mixture of isomers) [Compound 12, N-(trans-4-aminomethylcyclohexylcarbonyl)-3-phenoxy-DL-phenylalanine 4-pyrimidylamide dihydrochloride]",> 1000,1000,55,> 150,130,> 1000,–
"NC[C@H]1CC[C@H](C(=O)NC(Cc2cccc(OCc3ccccc3)c2)C(=O)Nc2cccnc2)CC1 (mixture of isomers) [Compound 22, N-(trans-4-aminomethylcyclohexylcarbonyl)-3-benzyloxy-DL-phenylalanine 3-pyridylamide dihydrochloride]",–,> 1000,> 500,> 150,> 500,> 500,–
"COCCCNC(=O)C(Cc1cccc(Oc2ccc(Br)cn2)c1)NC(=O)[C@H]1CC[C@H](CN)CC1 (mixture of isomers) [Compound 25, N-(trans-4-aminomethylcyclohexylcarbonyl)-3-(5-bromo-2-pyridyloxy)-DL-phenylalanine 3-methoxypropylamide hydrochloride]",> 1000,490,500,> 150,450,> 1000,–
"CC(=O)c1ccc(NC(=O)C(Cc2cccc(Oc3ccccc3)c2)NC(=O)[C@H]2CC[C@H](CNC(=N)N)CC2)cc1 (mixture of isomers) [Compound 30, N-(trans-4-guanidinomethylcyclohexylcarbonyl)-3-phenoxy-DL-phenylalanine 4-acetylanilide methane sulfonate]",–,> 20,> 10,> 150,> 50,–,–
"CCOC(=O)C1CCN(C(=O)C(Cc2cccc(Oc3ccccc3)c2)NC(=O)c2ccc(NC(=N)N)cc2)CC1 (racemic) [Compound 34, N-(4-guanidinobenzoyl)-3-phenoxy-DL-phenylalanine 4-ethoxycarbonyl piperidinoamide methane sulfonate]",> 200,–,270,> 150,–,> 50,–
"N=C(N)Nc1ccc(C(=O)NC(Cc2cccc(Oc3ccccc3)c2)C(=O)N2CCC(C(=O)O)CC2)cc1 (racemic) [Compound 35, N-(4-guanidinobenzoyl)-3-phenoxy-DL-phenylalanine 4-hydroxycarbonyl piperidinoamide methane sulfonate]",–,> 500,> 500,240,> 200,–,–
"N=C(N)Nc1ccc(C(=O)NC(Cc2cccc(Oc3ccccc3)c2)C(=O)Nc2ccc(CC(=O)O)cc2)cc1 (racemic) [Compound 36, N-(4-guanidinobenzoyl)-3-phenoxy-DL-phenylalanine 4-hydroxycarbonylmethylanilide hydrochloride]",–,25,1.9,17,> 25,–,–
NC[C@H]1CC[C@H](C(=O)NC(Cc2cccc(Oc3ccccc3)c2)C(=O)Nc2cccnc2)CC1 (stereo partly drawn) [Compound 7],–,–,2,15,–,> 1000,–
NC[C@H]1CC[C@H](C(=O)NC(Cc2cccc(Oc3ccccc3)c2)C(=O)Nc2ncc[nH]2)CC1 (stereo partly drawn) [Compound 11],> 400,610,190,68,220,–,–
NC[C@H]1CC[C@H](C(=O)NC(Cc2cccc(Oc3ccccc3)c2)C(=O)Nc2nnn[nH]2)CC1 (stereo partly drawn) [Compound 13],> 200,–,> 200,> 150,–,> 100,–

# — US4873253A, “Phenylalanine derivative and proteinase inhibitor” (Okamoto; Shosuke, priority 1987, dated 1989)
